Test results as given in patent publication US4954514A, “(Di-tert-butylhydroxyphenyl)thio derivatives and antiarterioschlerosis compositions thereof” (Shionogi & Co, Ltd, priority 1989, dated 1990).

Columns and labels:
[1] = test system: peroxidized lipid in a homogenate of rat brain; assay: Suppression on production of peroxidized lipid in a homogenate of rat brain (thiobarbituric acid (TBA) method); type: biochemical, SD strain rats; details: final concentration 0.01 mM, 37° C., 30 minutes, % of vehicle control
Procedure: Suppression on production of peroxidized lipid in a homogenate of rat brain:
SD strain rats (body weight, about 200 g) were sacrificed by cutting down their heads, and the brains were taken out. The brains were homogenated with a 4-fold amount of 0.05M phosphate-sodium chloride buffer (pH 7.4) and centrifuged at 1000×g for 10 minutes. The supernatant was kept at -80° C. for storage.
The supernatant was diluted with a 2-fold amount of the same phosphate - sodium chloride buffer as above, and 0.48 ml of the dilution was combined with 30 μl of ethanol per se (vehicle) or ethanol solution containing a test compound (final concentration: 0.01 mM), followed by incubation at 37° C. for 30 minutes. The reaction was terminated by addition of 0.01% butylhydroxytoluene (BHT) in ethanol (20 μl) and 25% metaphosphoric acid (125 μl) and subjected to elimination of proteins. The peroxidized lipid in the supernatant was measured by the thiobarbituric acid (TBA) method according to the description in Ohkawa et al.: Anal. Biochem., vol. 95, page 351 (1979). The amount of peroxidized lipid produced was compared with that in the vehicle applied group and expressed in % control.

[2] = test system: hydrochloric acid ethanol-induced gastric ulcer; assay: Effect against hydrochloric acid ethanol-induced gastric ulcer; type: in vivo, male JCD-SD rats; details: rat, oral, 30 minutes before hydrochloric acid-ethanol; from lesion index; dose not given
Procedure: Effect against hydrochloric acid ethanol-induced gastric ulcer.
To male JCD-SD rats (weight: 220-275 g) which have been fasted for 24 hours was administered orally 1 ml of 150 mM hydrochloric acid - 60% ethanol. After an hour, the stomachs were excised. The ulcer size as determined by measuring the length of each lesion under stereoscopic microscope and the sum of individual lesion length is expressed as lesion index. The vehicle (1% to 10% ethanol) and the test compounds were administered orally 30 minutes before the hydrochloric acid -ethanol administration. The percent suppression was calculated from the lesion indexes of treated versus untreated animals.

Structure (SMILES): CC(C)(C)c1cc(SCCCC#N)cc(C(C)(C)C)c1O [Ia, 4-(3,5-Di-tert-butyl-4-hydroxy)phenylthiobutylonitrile]
- Peroxidized Lipid Produced (Expressed in % to Control) [1]: 4.5%
- Inhibitory Rate (Expressed in % to Control) [2]: 94.3 ± 14.8%

Structure (SMILES): CC(C)(C)c1cc(SCCCCC#N)cc(C(C)(C)C)c1O [Ib, 5-(3,5-Di-tert-butyl-4-hydroxy)phenylthiopentanonitrile]
- Peroxidized Lipid Produced (Expressed in % to Control) [1]: 3.6%
- Inhibitory Rate (Expressed in % to Control) [2]: 61.2 ± 18.4%

Structure (SMILES): CC(C)(C)c1cc(SCCCCCC#N)cc(C(C)(C)C)c1O [Ic, 6-(3,5-Di-tert-butyl-4-hydroxy)phenylthiohexanonitrile]
- Peroxidized Lipid Produced (Expressed in % to Control) [1]: 9.2%
- Inhibitory Rate (Expressed in % to Control) [2]: 19.2 ± 8.4%

Structure (SMILES): CC(C)(C)c1cc(SCCCCCCC#N)cc(C(C)(C)C)c1O [Id, 7-(3,5-Di-tert-butyl-4-hydroxy)phenylthioheptanonitrile]
- Peroxidized Lipid Produced (Expressed in % to Control) [1]: 5.4%
- Inhibitory Rate (Expressed in % to Control) [2]: 77.3 ± 16.8%

Structure (SMILES): CC(C)(C)c1cc(SCCc2nnn[nH]2)cc(C(C)(C)C)c1O [Ie, 5-[2-(3,5-Di-tert-butyl-4-hydroxy)phenylthioethyl]tetrazole]
- Peroxidized Lipid Produced (Expressed in % to Control) [1]: 8.1%
- Inhibitory Rate (Expressed in % to Control) [2]: 37.2 ± 5.9%

Structure (SMILES): CC(C)(C)c1cc(SCCCc2nnn[nH]2)cc(C(C)(C)C)c1O [If, 5-[3-(3,5-Di-tert-butyl-4-hydroxy)phenylthiopropyl]tetrazole]
- Peroxidized Lipid Produced (Expressed in % to Control) [1]: 5.7%
- Inhibitory Rate (Expressed in % to Control) [2]: 52.1 ± 20.0%

Structure (SMILES): CC(C)(C)c1cc(SCCCCc2nnn[nH]2)cc(C(C)(C)C)c1O [Ig, 5-[4-(3,5-Di-tert-butyl-4-hydroxy)phenylthiobutyl]tetrazole]
- Peroxidized Lipid Produced (Expressed in % to Control) [1]: 4.1%
- Inhibitory Rate (Expressed in % to Control) [2]: 49.2 ± 13.0%

Structure (SMILES): CC(C)(C)c1cc(SCCCCCc2nnn[nH]2)cc(C(C)(C)C)c1O [Ih, 5-[5-(3,5-Di-tert-butyl-4-hydroxy)phenylthiopentyl]tetrazole]
- Peroxidized Lipid Produced (Expressed in % to Control) [1]: 9.5%
- Inhibitory Rate (Expressed in % to Control) [2]: 52.5 ± 16.6%

Structure (SMILES): CC(C)(C)c1cc(SCCCCCCc2nnn[nH]2)cc(C(C)(C)C)c1O [Ii, 5-[6-(3,5-Di-tert-butyl-4-hydroxy)phenylthiohexyl]tetrazole]
- Peroxidized Lipid Produced (Expressed in % to Control) [1]: 4.4%
- Inhibitory Rate (Expressed in % to Control) [2]: 46.6 ± 13.4%

Structure (SMILES): CC(C)(C)c1cc(SCCCCCC(N)=O)cc(C(C)(C)C)c1O [Ij, 6-(3,5-Di-tert-butyl-4-hydroxy)phenylthiohexanamide]
- Peroxidized Lipid Produced (Expressed in % to Control) [1]: 4.7%
- Inhibitory Rate (Expressed in % to Control) [2]: 70.8 ± 8.5%

Structure (SMILES): CC(C)(Sc1cc(C(C)(C)C)c(O)c(C(C)(C)C)c1)Sc1cc(C(C)(C)C)c(O)c(C(C)(C)C)c1 [Probucol, reference compound]
- Peroxidized Lipid Produced (Expressed in % to Control) [1]: 58.3%
- Inhibitory Rate (Expressed in % to Control) [2]: 75.4 ± 22.1%
